The target of test [1] is T1, GIRK1/GIRK2 channels (AtT20 cells) (Mus musculus, UniProt P48542+P63250).
T1 sequence (P63250 1-501): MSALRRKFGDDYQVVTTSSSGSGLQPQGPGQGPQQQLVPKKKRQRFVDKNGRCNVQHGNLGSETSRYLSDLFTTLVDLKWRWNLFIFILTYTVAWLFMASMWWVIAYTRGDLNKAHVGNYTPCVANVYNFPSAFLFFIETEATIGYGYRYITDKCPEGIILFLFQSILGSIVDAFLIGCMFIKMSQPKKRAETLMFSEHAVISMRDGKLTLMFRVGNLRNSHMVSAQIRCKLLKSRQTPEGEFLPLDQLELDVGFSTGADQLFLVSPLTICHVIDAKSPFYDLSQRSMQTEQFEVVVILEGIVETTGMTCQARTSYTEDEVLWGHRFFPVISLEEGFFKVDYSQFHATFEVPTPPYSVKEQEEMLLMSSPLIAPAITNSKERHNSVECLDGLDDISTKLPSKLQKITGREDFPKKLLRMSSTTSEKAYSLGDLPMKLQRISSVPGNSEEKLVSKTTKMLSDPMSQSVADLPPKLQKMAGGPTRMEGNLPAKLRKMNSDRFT
T1 sequence (P48542 1-425): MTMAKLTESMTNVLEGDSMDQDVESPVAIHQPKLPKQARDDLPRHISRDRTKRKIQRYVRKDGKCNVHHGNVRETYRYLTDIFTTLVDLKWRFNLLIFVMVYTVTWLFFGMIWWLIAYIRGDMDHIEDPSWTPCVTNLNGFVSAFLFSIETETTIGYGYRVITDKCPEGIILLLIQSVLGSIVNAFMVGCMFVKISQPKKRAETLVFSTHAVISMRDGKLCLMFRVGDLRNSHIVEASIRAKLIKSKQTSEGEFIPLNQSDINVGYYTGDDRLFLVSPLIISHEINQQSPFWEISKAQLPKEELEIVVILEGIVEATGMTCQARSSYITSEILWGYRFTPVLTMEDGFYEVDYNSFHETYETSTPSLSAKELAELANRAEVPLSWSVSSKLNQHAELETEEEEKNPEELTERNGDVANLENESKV
As to the kind of experiment: GIRK channel fluorescent plate reader assay. Type of test: cell-based.

Test [2] relates to atrial fibrillation. As to conditions: ref Hashimoto et al., [2008]; Machida et al., [2011]; cited from earlier work.
Test [3] has as its system GIRK1/GIRK4 channels. As to conditions: ref Hashimoto et al., [2008]; Machida et al., [2011]; cited from earlier work.
For test [4], the target named is T2, GIRK1/GIRK4 channel (cardiac HL-1 cells) (Mus musculus, UniProt P48545+P63250).
T2 sequence (P63250 1-501): T1 sequence (P63250 1-501)
T2 sequence (P48545 1-419): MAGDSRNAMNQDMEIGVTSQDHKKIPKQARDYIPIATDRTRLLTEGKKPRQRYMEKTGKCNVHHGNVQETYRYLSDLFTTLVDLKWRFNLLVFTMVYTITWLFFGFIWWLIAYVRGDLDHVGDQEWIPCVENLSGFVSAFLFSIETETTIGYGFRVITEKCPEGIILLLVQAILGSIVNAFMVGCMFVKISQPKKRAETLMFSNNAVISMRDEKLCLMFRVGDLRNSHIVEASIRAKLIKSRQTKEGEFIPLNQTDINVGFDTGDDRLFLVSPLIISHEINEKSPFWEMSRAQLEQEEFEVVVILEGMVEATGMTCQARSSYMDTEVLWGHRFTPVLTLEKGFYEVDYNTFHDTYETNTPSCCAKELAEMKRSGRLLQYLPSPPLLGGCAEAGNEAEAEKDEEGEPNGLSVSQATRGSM
As to the kind of experiment: GIRK channel fluorescent plate reader assay. Type of test: cell-based.

As a reminder, the IC50 is the concentration at which inhibition is half-maximal. Broadly, the EC50 is the concentration at which the effect is half-maximal. Lower therefore signals higher potency in that assay.

On to `[Ba+2].[Cl-].[Cl-]` [BaCl2], for which the “reduction of the somatostatin-mediated fluorescent change” value came to 67 ± 4% in test [1] (0.5 mM, AtT20 cells, n = 6 wells) and 92 ± 2% in test [1] (1 mM, AtT20 cells, n = 6 wells). Further, the “inhibition of the somatostatin-mediated fluorescent change” value in test [1] (2 mM, 5 min pretreatment, AtT20 cells) is listed as “complete inhibition”.
Take `[Cl-].[K+]` [KCl]: the “fluorescent change (F/FO)” value came out at 0.058 in test [1] (10 mM KCl, depolarization, AtT20 cells); 0.13 in test [1] (20 mM KCl, depolarization, AtT20 cells); 0.15 in test [1] (30 mM KCl, depolarization, AtT20 cells).
In the case of `Cc1cc(CO)nc2cc3c(cc12)OC(C)(C)[C@H](O)[C@H]3NCCc1ccccc1` [NTC-801], in test [2], the “effect in canine model of atrial fibrillation” value was “converted AF to sinus rhythm”. For the same molecule, the “concentration range of GIRK1/GIRK4 channel block” value in test [3] is recorded as “nanomolar concentrations”.
`Cc1nc2c(OCc3ccccc3)cccn2c1CC#N` [SCH-28080, 2-methyl-8-(phenylmethoxy)imidazo[1,2-A]pyridine-3-acetonitrile]: the IC50 in test [1] worked out at 200 nM; in test [4] it was 300 nM.
Regarding `Nc1ncnc2c1ncn2[C@@H]1O[C@H](CO)[C@@H](O)[C@H]1O` [adenosine], the “change in the fluorescent signal” value in test [1] (10 μM, AtT20 cells) is “no change”.
`N=C(N)NC(=O)c1nc(Cl)c(N)nc1N` [amiloride]: in test [1] (tested up to 10 μM, AtT20 and HL-1 cells screened, cell line not specified), the “GIRK channel blocking effect” value is “no blocking effect”.
The molecule `C[N+](C)(C)CCOC(N)=O` [carbachol] showed a concentration for a half-maximal effect (EC50) in test [1] of 1000 nM. The same molecule returned a peak fluorescent change in test [1] (AtT20 cells, n = 6 wells) of −0.037.
On to `COc1ccc2[nH]c([S+]([O-])Cc3ncc(C)c(OC)c3C)nc2c1` (stereo not shown) [omeprazole], for which the “change in GPCR-sensitive fluorescence during treatment” value in test [1] (cell line not specified (AtT20 / HL-1), Figure 5) is reported as “no change in fluorescence”.
On to `C[C@H](N)C(=O)NCC(=O)N[C@H]1CSSC[C@@H](C(=O)O)NC(=O)[C@H](CO)NC(=O)[C@H]([C@@H](C)O)NC(=O)[C@H](Cc2ccccc2)NC(=O)[C@H]([C@@H](C)O)NC(=O)[C@H](CCCCN)NC(=O)[C@H](Cc2c[nH]c3ccccc23)NC(=O)[C@H](Cc2ccccc2)NC(=O)[C@H](Cc2ccccc2)NC(=O)[C@H](CC(N)=O)NC(=O)[C@H](CCCCN)NC1=O` [somatostatin], for which the “fluorescent change (F/FO)” value in test [1] (200 nM, AtT20 cells, n = 6 wells) is recorded as −0.088.

The record behind these values is paper PMC3204421 (Frontiers in Pharmacology, 2011).
